{"source": "the kinase profiling compilation of Christmann-Franck et al. (2016)", "test_in_all_cases": "KINOMEscan competition binding", "details_in_all_cases": "compound 0.5 µM", "key": {"HCK (human)": {"molecular_target": "HCK (human) (UniProt P08631)"}, "BMPR1B (human)": {"molecular_target": "BMPR1B (human) (UniProt O00238)"}, "HIPK3 (human)": {"molecular_target": "HIPK3 (human) (UniProt Q9H422)", "sequence (Q9H422 whole entry, looked up)": "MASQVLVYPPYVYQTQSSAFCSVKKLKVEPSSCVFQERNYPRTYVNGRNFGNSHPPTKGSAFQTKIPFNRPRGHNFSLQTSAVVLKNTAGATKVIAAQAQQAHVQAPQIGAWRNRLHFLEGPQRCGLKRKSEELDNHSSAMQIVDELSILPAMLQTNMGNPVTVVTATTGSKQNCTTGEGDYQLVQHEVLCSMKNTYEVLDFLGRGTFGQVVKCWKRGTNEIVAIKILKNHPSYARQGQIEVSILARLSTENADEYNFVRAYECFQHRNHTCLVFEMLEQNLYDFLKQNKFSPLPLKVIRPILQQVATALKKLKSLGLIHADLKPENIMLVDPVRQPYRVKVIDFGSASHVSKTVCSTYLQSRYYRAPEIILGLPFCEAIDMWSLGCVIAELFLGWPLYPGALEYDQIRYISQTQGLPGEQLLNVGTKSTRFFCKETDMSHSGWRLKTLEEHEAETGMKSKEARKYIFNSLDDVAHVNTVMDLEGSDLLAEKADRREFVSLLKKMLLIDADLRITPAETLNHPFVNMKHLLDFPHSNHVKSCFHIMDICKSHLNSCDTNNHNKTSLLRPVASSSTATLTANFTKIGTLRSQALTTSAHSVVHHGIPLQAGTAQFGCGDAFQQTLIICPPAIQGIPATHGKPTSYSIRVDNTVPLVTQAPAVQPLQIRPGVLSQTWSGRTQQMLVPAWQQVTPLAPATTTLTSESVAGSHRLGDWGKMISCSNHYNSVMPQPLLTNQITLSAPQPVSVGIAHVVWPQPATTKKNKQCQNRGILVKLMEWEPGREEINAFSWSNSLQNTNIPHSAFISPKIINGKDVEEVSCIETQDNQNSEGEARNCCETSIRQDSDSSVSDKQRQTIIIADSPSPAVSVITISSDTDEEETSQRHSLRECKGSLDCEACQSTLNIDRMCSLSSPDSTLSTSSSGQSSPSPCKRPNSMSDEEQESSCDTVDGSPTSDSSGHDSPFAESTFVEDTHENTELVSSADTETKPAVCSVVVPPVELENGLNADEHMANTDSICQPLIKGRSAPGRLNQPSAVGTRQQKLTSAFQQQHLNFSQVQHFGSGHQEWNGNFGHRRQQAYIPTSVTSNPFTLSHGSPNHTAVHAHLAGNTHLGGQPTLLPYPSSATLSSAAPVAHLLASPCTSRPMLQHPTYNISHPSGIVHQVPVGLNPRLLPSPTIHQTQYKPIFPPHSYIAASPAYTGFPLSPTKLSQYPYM"}, "CAMK2A (human)": {"molecular_target": "CAMK2A (human) (UniProt Q9UQM7)"}, "[1]": {"test_system": "PIK3CA (human), P42336 [Q546K]"}, "BRSK2 (human)": {"molecular_target": "BRSK2 (human) (UniProt Q8IWQ3)"}, "FGFR1 (human)": {"molecular_target": "FGFR1 (human) (UniProt P11362)"}, "EPHA4 (human)": {"molecular_target": "EPHA4 (human) (UniProt P54764)"}, "FGR (human)": {"molecular_target": "FGR (human) (UniProt P09769)"}, "MAP3K1 (human)": {"molecular_target": "MAP3K1 (human) (UniProt Q13233)"}, "[2]": {"test_system": "MET (human), P08581 [Y1235D]"}, "MAPK8 (human)": {"molecular_target": "MAPK8 (human) (UniProt P45983)", "sequence (P45983 whole entry, looked up)": "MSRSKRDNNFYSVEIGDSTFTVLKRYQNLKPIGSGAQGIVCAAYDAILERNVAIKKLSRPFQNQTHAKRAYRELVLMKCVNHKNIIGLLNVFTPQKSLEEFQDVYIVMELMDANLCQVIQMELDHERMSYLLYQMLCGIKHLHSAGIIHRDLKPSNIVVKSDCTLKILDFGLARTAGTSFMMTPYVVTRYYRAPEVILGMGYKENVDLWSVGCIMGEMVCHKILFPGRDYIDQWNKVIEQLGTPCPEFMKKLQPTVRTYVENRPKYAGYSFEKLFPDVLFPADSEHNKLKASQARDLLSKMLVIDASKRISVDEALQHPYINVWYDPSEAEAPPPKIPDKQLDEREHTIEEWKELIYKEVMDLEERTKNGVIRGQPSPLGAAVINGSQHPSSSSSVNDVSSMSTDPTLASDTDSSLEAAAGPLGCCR"}, "TNIK (human)": {"molecular_target": "TNIK (human) (UniProt Q9UKE5)"}, "PLK1 (human)": {"molecular_target": "PLK1 (human) (UniProt P53350)"}, "MYLK4 (human)": {"molecular_target": "MYLK4 (human) (UniProt Q86YV6)"}, "CDK4 CCND1 (human)": {"molecular_target": "CDK4 CCND1 (human) (UniProt P11802+P24385)"}, "CAMK2D (human)": {"molecular_target": "CAMK2D (human) (UniProt Q13557)", "sequence (Q13557 whole entry, looked up)": "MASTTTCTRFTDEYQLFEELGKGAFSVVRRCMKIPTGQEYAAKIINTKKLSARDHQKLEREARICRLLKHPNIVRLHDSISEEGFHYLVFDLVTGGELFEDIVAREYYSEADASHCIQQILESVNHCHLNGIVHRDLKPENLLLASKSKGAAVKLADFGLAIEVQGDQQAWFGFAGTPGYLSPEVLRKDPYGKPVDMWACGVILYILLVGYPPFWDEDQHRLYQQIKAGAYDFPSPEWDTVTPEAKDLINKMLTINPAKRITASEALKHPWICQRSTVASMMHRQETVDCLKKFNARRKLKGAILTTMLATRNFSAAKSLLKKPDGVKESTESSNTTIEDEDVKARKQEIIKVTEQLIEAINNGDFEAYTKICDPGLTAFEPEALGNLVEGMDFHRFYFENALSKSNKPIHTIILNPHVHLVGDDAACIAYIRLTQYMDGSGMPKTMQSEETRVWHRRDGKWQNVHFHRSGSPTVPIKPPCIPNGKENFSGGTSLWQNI"}, "MAPK13 (human)": {"molecular_target": "MAPK13 (human) (UniProt O15264)", "sequence (O15264 whole entry, looked up)": "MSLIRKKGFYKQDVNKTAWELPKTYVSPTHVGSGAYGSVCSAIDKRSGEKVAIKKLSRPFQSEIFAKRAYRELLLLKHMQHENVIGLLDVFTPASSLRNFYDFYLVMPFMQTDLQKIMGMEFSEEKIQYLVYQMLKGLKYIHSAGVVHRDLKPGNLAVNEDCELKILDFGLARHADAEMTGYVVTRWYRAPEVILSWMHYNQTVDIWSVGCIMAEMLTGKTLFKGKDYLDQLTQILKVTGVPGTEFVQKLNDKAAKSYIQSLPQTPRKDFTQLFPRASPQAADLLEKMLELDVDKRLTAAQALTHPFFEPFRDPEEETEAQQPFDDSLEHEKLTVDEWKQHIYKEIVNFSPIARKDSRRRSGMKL"}, "AKT2 (human)": {"molecular_target": "AKT2 (human) (UniProt P31751)", "sequence (P31751 whole entry, looked up)": "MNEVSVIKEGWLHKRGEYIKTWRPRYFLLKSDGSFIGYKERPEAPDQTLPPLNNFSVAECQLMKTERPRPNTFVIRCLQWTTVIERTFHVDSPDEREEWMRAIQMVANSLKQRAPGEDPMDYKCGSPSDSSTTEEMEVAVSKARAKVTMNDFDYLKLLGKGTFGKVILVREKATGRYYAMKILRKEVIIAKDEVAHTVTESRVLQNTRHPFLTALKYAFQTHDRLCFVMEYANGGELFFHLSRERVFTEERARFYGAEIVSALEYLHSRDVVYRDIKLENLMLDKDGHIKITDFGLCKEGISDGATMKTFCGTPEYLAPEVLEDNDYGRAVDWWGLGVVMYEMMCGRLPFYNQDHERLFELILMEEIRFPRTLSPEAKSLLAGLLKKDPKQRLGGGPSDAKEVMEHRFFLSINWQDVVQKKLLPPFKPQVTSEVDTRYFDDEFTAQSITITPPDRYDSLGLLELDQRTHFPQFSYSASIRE"}, "HIPK1 (human)": {"molecular_target": "HIPK1 (human) (UniProt Q86Z02)"}, "AURKB (human)": {"molecular_target": "AURKB (human) (UniProt Q96GD4)"}, "AKT3 (human)": {"molecular_target": "AKT3 (human) (UniProt Q9Y243)"}, "[3]": {"test_system": "KIT (human), P10721 [V559D/V654A]"}, "CSF1R (human)": {"molecular_target": "CSF1R (human) (UniProt P07333)"}, "[4]": {"test_system": "FLT3 (human), P36888 [R834Q]"}, "CDK8 (human)": {"molecular_target": "CDK8 (human) (UniProt P49336)", "sequence (P49336 whole entry, looked up)": "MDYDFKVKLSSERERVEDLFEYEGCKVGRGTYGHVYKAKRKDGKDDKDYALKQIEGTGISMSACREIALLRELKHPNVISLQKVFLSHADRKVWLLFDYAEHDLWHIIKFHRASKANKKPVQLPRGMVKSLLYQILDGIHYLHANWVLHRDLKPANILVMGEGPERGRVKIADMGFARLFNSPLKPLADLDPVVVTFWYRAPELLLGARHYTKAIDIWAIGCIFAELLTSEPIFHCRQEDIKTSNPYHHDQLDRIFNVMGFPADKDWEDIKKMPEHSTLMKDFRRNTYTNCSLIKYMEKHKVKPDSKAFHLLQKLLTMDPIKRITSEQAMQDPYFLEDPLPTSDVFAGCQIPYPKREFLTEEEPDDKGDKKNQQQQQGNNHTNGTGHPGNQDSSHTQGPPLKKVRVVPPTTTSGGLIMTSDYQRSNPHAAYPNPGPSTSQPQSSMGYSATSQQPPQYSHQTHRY"}, "AURKA (human)": {"molecular_target": "AURKA (human) (UniProt O14965)"}, "IGF1R (human)": {"molecular_target": "IGF1R (human) (UniProt P08069)"}, "NEK1 (human)": {"molecular_target": "NEK1 (human) (UniProt Q96PY6)"}, "TNK2 (human)": {"molecular_target": "TNK2 (human) (UniProt Q07912)"}, "[5]": {"test_system": "RET (human), P07949 [M918T]"}, "TRPM6 (human)": {"molecular_target": "TRPM6 (human) (UniProt Q9BX84)"}, "CDKL3 (human)": {"molecular_target": "CDKL3 (human) (UniProt Q8IVW4)"}, "LATS2 (human)": {"molecular_target": "LATS2 (human) (UniProt Q9NRM7)"}, "STK16 (human)": {"molecular_target": "STK16 (human) (UniProt O75716)"}, "CSNK2A2 (human)": {"molecular_target": "CSNK2A2 (human) (UniProt P19784)", "sequence (P19784 whole entry, looked up)": "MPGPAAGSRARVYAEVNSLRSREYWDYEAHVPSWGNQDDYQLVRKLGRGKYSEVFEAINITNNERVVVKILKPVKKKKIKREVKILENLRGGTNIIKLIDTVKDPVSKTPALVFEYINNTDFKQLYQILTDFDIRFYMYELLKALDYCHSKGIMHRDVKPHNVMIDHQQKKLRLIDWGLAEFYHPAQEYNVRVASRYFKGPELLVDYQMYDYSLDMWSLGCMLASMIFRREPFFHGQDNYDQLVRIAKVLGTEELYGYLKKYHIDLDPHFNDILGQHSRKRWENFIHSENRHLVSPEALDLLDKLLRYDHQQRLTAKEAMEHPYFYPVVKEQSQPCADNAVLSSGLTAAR"}, "ULK1 (human)": {"molecular_target": "ULK1 (human) (UniProt O75385)", "sequence (O75385 whole entry, looked up)": "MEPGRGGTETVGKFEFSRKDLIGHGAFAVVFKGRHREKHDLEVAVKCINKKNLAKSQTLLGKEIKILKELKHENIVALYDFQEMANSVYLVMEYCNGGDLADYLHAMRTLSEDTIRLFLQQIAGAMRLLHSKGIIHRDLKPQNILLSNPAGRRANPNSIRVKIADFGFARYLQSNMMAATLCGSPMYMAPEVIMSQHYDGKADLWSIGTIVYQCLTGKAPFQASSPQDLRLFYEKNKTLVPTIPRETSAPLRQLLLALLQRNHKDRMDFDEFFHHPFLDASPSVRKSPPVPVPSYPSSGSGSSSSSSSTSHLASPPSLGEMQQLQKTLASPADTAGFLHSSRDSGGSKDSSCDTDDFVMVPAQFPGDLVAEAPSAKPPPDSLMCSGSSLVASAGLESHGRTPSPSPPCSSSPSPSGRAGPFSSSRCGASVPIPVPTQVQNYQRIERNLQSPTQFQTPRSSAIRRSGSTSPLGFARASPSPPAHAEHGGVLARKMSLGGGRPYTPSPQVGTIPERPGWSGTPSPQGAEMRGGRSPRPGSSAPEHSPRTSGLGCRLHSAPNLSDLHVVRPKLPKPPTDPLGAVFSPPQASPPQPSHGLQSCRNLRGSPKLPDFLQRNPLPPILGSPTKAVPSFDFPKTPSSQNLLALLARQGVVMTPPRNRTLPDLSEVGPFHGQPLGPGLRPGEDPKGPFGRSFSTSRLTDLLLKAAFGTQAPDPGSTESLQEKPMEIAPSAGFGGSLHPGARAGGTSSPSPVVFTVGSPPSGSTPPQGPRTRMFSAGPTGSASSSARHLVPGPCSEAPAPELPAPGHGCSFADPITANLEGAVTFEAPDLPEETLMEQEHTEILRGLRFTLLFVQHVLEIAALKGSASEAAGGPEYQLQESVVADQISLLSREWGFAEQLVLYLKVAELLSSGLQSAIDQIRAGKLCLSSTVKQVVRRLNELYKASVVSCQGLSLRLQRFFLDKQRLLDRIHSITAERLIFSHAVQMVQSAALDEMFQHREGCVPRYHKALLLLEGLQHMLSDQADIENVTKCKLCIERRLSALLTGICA"}, "MYO3A (human)": {"molecular_target": "MYO3A (human) (UniProt Q8NEV4)"}, "SBK1 (human)": {"molecular_target": "SBK1 (human) (UniProt Q52WX2)"}, "[6]": {"test_system": "FLT3 (human), P36888 [N841I]"}, "MUSK (human)": {"molecular_target": "MUSK (human) (UniProt O15146)"}, "SRPK3 (human)": {"molecular_target": "SRPK3 (human) (UniProt Q9UPE1)"}}, "data": [{"molecule": "Cn1c2ccccc2c2c3c(c4c5ccccc5n(CCC#N)c4c21)CNC3=O", "values": [{"measurement": "kinase still bound, per cent of control", "setting": "HCK (human)", "result": 100, "unit": "%"}, {"measurement": "kinase still bound, per cent of control", "setting": "BMPR1B (human)", "result": 56, "unit": "%"}, {"measurement": "kinase still bound, per cent of control", "setting": "HIPK3 (human)", "result": 12, "unit": "%"}, {"measurement": "kinase still bound, per cent of control", "setting": "CAMK2A (human)", "result": 27, "unit": "%"}, {"measurement": "kinase still bound, per cent of control", "setting": "[1]", "result": 100, "unit": "%"}, {"measurement": "kinase still bound, per cent of control", "setting": "BRSK2 (human)", "result": 49, "unit": "%"}, {"measurement": "kinase still bound, per cent of control", "setting": "FGFR1 (human)", "result": 74, "unit": "%"}, {"measurement": "kinase still bound, per cent of control", "setting": "EPHA4 (human)", "result": 97, "unit": "%"}, {"measurement": "kinase still bound, per cent of control", "setting": "FGR (human)", "result": 84, "unit": "%"}, {"measurement": "kinase still bound, per cent of control", "setting": "MAP3K1 (human)", "result": 100, "unit": "%"}, {"measurement": "kinase still bound, per cent of control", "setting": "[2]", "result": 80, "unit": "%"}, {"measurement": "kinase still bound, per cent of control", "setting": "MAPK8 (human)", "result": 18, "unit": "%"}, {"measurement": "kinase still bound, per cent of control", "setting": "TNIK (human)", "result": 0.3, "unit": "%"}, {"measurement": "kinase still bound, per cent of control", "setting": "PLK1 (human)", "result": 100, "unit": "%"}, {"measurement": "kinase still bound, per cent of control", "setting": "MYLK4 (human)", "result": 17, "unit": "%"}, {"measurement": "kinase still bound, per cent of control", "setting": "CDK4 CCND1 (human)", "result": 57, "unit": "%"}, {"measurement": "kinase still bound, per cent of control", "setting": "CAMK2D (human)", "result": 33, "unit": "%"}, {"measurement": "kinase still bound, per cent of control", "setting": "MAPK13 (human)", "result": 100, "unit": "%"}, {"measurement": "kinase still bound, per cent of control", "setting": "AKT2 (human)", "result": 95, "unit": "%"}, {"measurement": "kinase still bound, per cent of control", "setting": "HIPK1 (human)", "result": 32, "unit": "%"}, {"measurement": "kinase still bound, per cent of control", "setting": "AURKB (human)", "result": 32, "unit": "%"}, {"measurement": "kinase still bound, per cent of control", "setting": "AKT3 (human)", "result": 100, "unit": "%"}, {"measurement": "kinase still bound, per cent of control", "setting": "[3]", "result": 100, "unit": "%"}, {"measurement": "kinase still bound, per cent of control", "setting": "CSF1R (human)", "result": 37, "unit": "%"}, {"measurement": "kinase still bound, per cent of control", "setting": "[4]", "result": 12, "unit": "%"}, {"measurement": "kinase still bound, per cent of control", "setting": "CDK8 (human)", "result": 85, "unit": "%"}, {"measurement": "kinase still bound, per cent of control", "setting": "AURKA (human)", "result": 74, "unit": "%"}, {"measurement": "kinase still bound, per cent of control", "setting": "IGF1R (human)", "result": 85, "unit": "%"}, {"measurement": "kinase still bound, per cent of control", "setting": "NEK1 (human)", "result": 99, "unit": "%"}, {"measurement": "kinase still bound, per cent of control", "setting": "TNK2 (human)", "result": 18, "unit": "%"}, {"measurement": "kinase still bound, per cent of control", "setting": "[5]", "result": 0.15, "unit": "%"}, {"measurement": "kinase still bound, per cent of control", "setting": "TRPM6 (human)", "result": 81, "unit": "%"}, {"measurement": "kinase still bound, per cent of control", "setting": "CDKL3 (human)", "result": 91, "unit": "%"}, {"measurement": "kinase still bound, per cent of control", "setting": "LATS2 (human)", "result": 36, "unit": "%"}, {"measurement": "kinase still bound, per cent of control", "setting": "STK16 (human)", "result": 84, "unit": "%"}, {"measurement": "kinase still bound, per cent of control", "setting": "CSNK2A2 (human)", "result": 65, "unit": "%"}, {"measurement": "kinase still bound, per cent of control", "setting": "ULK1 (human)", "result": 92, "unit": "%"}, {"measurement": "kinase still bound, per cent of control", "setting": "MYO3A (human)", "result": 35, "unit": "%"}, {"measurement": "kinase still bound, per cent of control", "setting": "SBK1 (human)", "result": 82, "unit": "%"}, {"measurement": "kinase still bound, per cent of control", "setting": "[6]", "result": 0, "unit": "%"}, {"measurement": "kinase still bound, per cent of control", "setting": "MUSK (human)", "result": 100, "unit": "%"}, {"measurement": "kinase still bound, per cent of control", "setting": "SRPK3 (human)", "result": 3.8, "unit": "%"}]}]}
